From US20070203215A1, “Methods & Compositions For Enhancing Pharmaceutical Treatments” (Taiji Biomedical, Inc., priority 1999, published 2007)
Where “and” joins values, the source holds several entries; their conditions need not be identical. Equal values may be shown once. Each block holds one compound with its values, some of them ahead of it.

Experiments:
[1] = Blood-brain barrier penetration of loperamide, mouse hot-plate test; assay type: in vivo, mice; details: loperamide alone, i.v. 1-16 mg/kg
Description: These increases were dose dependent with respect to loperamide.

[2] = single agent + vehicle; paclitaxel 24 mg/kg i.v. Q5D x6 + 36 mg/kg i.v. Q5D x2; Formula 2 compound 30 mg/kg p.o. afternoon before and BID day of treatments
Experimental: Non-tumor bearing athymic mice were treated with the compound of Formula 2 and (or) paclitaxel as described.

MDA/LCC6^MDR1 tumors = test: In vivo antitumor efficacy, orthotopic MDA/LCC6^MDR1 tumors; design: species or system SCID/RAG2 mice; details: single agent alone; paclitaxel 12 mg/kg i.v.; Formula 2 free base 30 mg/kg p.o.
Experimental: Anti-tumor efficacy experiments with orthotopic MDA/LCC6 and MDA/LCC6^MDR1 tumors were conducted in female SCID/RAG2 mice. Ascites propagated cells (2×10^6 in 50 μl) were injected into mammary fat pads bilaterally on day 0 before randomization into groups of 5 mice per group. Paclitaxel (12 mg/kg/dose) was administered QD i.v. (tail vein) in 200 μl saline/Cremophor/ethanol (8/1/1 by volume) on days 5, 12, 19, and 26. The compound of Formula 2-free base (30 mg/kg/dose) was administered BID p.o. by gavage in 100 μl PEG 400/Tween 20 (9/1 by volume) on days 4-6, 11-13, 18-20, and 25-27. Mean body weights were recorded at least every other day. Tumor weight was monitored approximately every other day by caliper measurements and calculated according to the formula (Tumor weight =(length×width^2)÷2). This conversion formula was verified by comparing the calculation derived tumor weights to excised and weighed tumors. Animals bearing ulcerated tumors or where tumor weight exceeded 10% of the animal's body weight were terminated. The weights of the bilateral tumors were averaged for each mouse and mean tumor weights for each treatment group±standard error of the mean were calculated. Statistical analysis was carried out by Mann-Whitney test using GraphPad Prism software (San Diego, Calif.).
The compound of Formula 2 was administered the afternoon before, 2 hours before and 6 hours after each paclitaxel dose. The ability of orally administered Formula 2 compound to reverse MDR in solid tumors in vivo was assessed with the MDA/LCC6^MDR1 model. Because the compound of Formula 2 produced no effect on paditaxel blood levels, focus on up-front therapy (for naive animals) or minimal residual disease models was maintained, as opposed to established tumors. MDA/LCC6^MDR1 cells that express P-gp were resistant to paclitaxel treatment in vitro and this resistance was reversed by the compound of Formula 2 (FIG. 1). […] Similar results were obtained in three independent experiments with two different strains of immunocompromised mice (SCID/RAG-2 and athymic). […]

[3] = Oral paclitaxel bioavailability enhancement in rats (mesylate salt); assay type: in vivo; details: male, Sprague Dawley, rat, plasma, Group 2: paclitaxel 40 mg/kg p.o. + vehicle
Experimental: A total of 21 male Sprague Dawley rats were used. Animals were approximately 8 weeks of age at arrival and weighed ca 327-359 g.
Following analysis of paclitaxel, all remaining plasma were tested for a determination of the Formula 2 compound concentration.
Plasma samples were analyzed for unchanged paclitaxel using a liquid chromatography/mass spectroscopy (“LC/MS”) assay. […] The highest observable concentration was used as the peak concentration (Cmax). Time to Cmax was denoted as Tmax. […] The area under the plasma concentration curve extrapolated to infinity (AUC(I)) was calculated as the sum of AUC(0-t) plus the ratio of the last plasma concentration to the elimination rate constant. The terminal elimination constant (K) was calculated from the last 3 non-zero points of the log-linear regression. Half-life (tot) was determined by dividing 0.693 by K. The apparent plasma clearance (CL/F) was calculated for paclitaxel by dividing the nominal dose administered by AUC(I). […] Where values were below the limit of quantification, zero was used for pharmacokinetic analysis. Statistical analysis consisted of a Student-T-test with Two-sample unequal variance approximation and was performed on AUC90-t) and Cmax values to compare the Formula 2 compound treated animals vs. the corresponding vehicle treated animals.

[4] = Enhancement of the oral bioavailability of paclitaxel and docetaxel in rats; assay type: in vivo; details: male, Sprague-Dawley, rat, plasma, 10 mg/kg, Drug alone (10 mg/kg) oral; for AUC(0-t): read-out: AUC0-8
Experimental: In a further example, separate groups of eight male Sprague-Dawley rats (250-300 g body weight) with cannulae inserted into the jugular vein were purchased from Harlan-Sprague Dawley (Madison, Wis.). Animals were allowed free movement and access to water but were fasted for at least 8 h prior to the dose until study completion. […] Immediately prior to administration the mixture was diluted in saline to provide a paclitaxel or docetaxel concentration of 1mg/ml. Animals were then administered 10 μl/g body weight by oral gavage.
Serial blood samples (500 μl) were drawn prior to each dose (time 0) and at 0.5, 1, 2, 3, 4, 6 and 8 h through a cannula inserted into the jugular vein. The blood was collected into Microtainer® tubes containing EDTA anticoagulant. Whole blood was centrifuged under refrigeration at 2800 rpm for 10-20 minutes. Plasma samples were stored at −20° C. until analysis using a validated HPLC-MS method. Maximum plasma paclitaxel concentration (Cmax) and time to achieve this concentration (Tmax) were measured from concentration vs. time profiles. Area under the concentration vs. time curve from 0-8 hours (AUC0-8) was calculated using the linear and log trapezoidal methods in the rising and declining phases of the concentration vs. time curve respectively.

tumor-bearing mice = details: 20 mg/kg paclitaxel alone once per week
[5] = Saquinavir in rat cerebrospinal fluid and brain after oral ONT-093 or vehicle; assay type: in vivo, Sprague Dawley rats; details: Group 4: after vehicle, 30 min after saquinavir dose, individual animals 4001-4004
Experimental: (§1) Blood samples (ca 0.3 mL) were collected from 8 selected rats by jugular venipuncture during slight anesthesia pre-dose and at 0.25, 0.5, 1, 2, 4 and 8 post-dose (saquinavir dose). Cerebrospinal fluid (CSF) and brain tissue were collected terminally from the remaining 8 rats at ca 30 min following administration of the dose of saquinavir. Blood samples were collected into tubes containing EDTA and placed on wet ice pending centrifugation. Plasma, CSF and brain tissue samples were stored at ca −80° C. until analysis of saquinavir by LC/MS. The vehicle used was polyethylene glycol (PEG-400)1 Tween 20 (9:1; v:v).
(§2) A total of 16 male Sprague Dawley rats were received from Charles River Canada (Saint-Constant, Quebec). Animals were approximately 9 weeks of age at arrival and weighed ca 312-340 g. Four males were randomly assigned to each of Groups 1, 2, 3 and 4. On the day of dosing and following an overnight fast, animals were weighed (ca 305-323 g) and were administered their respective combination of doses. Animals of Groups 1 and 3 received a single oral dose of ONT-093 (20 mg/kg) by gavage at a dose volume of 2 mL/kg. Animals of Groups 2 and 4 received a single oral dose of the vehicle by gavage at a dose volume of 2 mL/kg. Approximately 30 min following administration of either ONT-093 or the vehicle, all animals received a single oral dose of saquinavir (20 mg/kg) by gavage at a dose volume of 1 mL/kg.
(§3) Following administration of saquinavir, blood samples (ca 0.3 mL in EDTA) were obtained from all rats of Groups 1 and 2 by jugular venipuncture during anesthesia with isoflurane (Ohmeda Pharmaceutical Products) at each of the following time-points: pre-dose (prior to administration of ONT-093 or vehicle) and 0.25, 0.5, 1, 2, 4 and 8 hr post-dose. Following administration of saquinavir, CSF was obtained from all animals of Groups 3 and 4 at 30 min following dose administration. CSF was collected (in tubes containing no anticoagulant) from the cistema magna during anesthesia with isoflurane. Following CSF collection, the animals were sacrificed by exsanguination via puncture of the vena cava and the brain was harvested from all these rats. Immediately following collection, all samples (blood, CSF and brain) were placed on ice until further processing or storage. Blood samples were centrifuged (ca 3080 g at ca 4° C. for 10 min) and the resulting plasma samples were stored at ca −80° C. pending analysis. CSF samples and brains were stored at ca −80° C. pending analysis.
(§4) Plasma samples, CSF samples and brains were analyzed for unchanged saquinavir using an LC/MS assay. Pharmacokinetic analysis was performed on plasma concentrations using the PhAST Software Program, Version 2.2-00 (Phoenix International Life Sciences Inc.). The highest observable concentration was assumed to be the peak concentration (Cmax); Time to Cmax was denoted Tmax. The area under the plasma concentration versus time-curve from time zero to the last measurable concentration [AUC(tf] was calculated by the linear trapezoidal method. Where applicable, numerical values were subjected to calculation of group means and % CV. Student-T-test with Satterthwaite approximation was performed on AUC and Cmax values to compare ONT-093 treated animals versus vehicle treated animals using SAS software program, Version 6.12 (SAS Institute Inc., Gary, N.C.). Where values were below limit of quantification, zero was used for pharmacokinetic analysis. The bioavailability (F) of saquinavir when administered with ONT-093 was calculated relative to the AUC values obtained from the animals receiving saquinavir following administration of the vehicle.

[6] = Clinical signs after saquinavir dose; assay type: in vivo, Sprague Dawley rats
Experimental: This clinical sign was no longer observable approximately 30 to 60 min after it was first observed.

in vivo = details: male, Sprague Dawley, rat; for concentration at 2 hr: 2 hr Post-Dose
Experimental: as §1, §2, §3, §4

Compound: CN(C)C(=O)C(CCN1CCC(O)(c2ccc(Cl)cc2)CC1)(c1ccccc1)c1ccccc1 [Loperamide]
Effect on mouse hot-plate escape time [1]: no effect

Compound: CC(=O)O[C@H]1C(=O)[C@@]2(C)[C@H]([C@H](OC(=O)c3ccccc3)[C@]3(O)C[C@H](OC(=O)[C@H](O)[C@@H](NC(=O)c4ccccc4)c4ccccc4)C(C)=C1C3(C)C)[C@]1(OC(C)=O)CO[C@@H]1C[C@@H]2O [Paclitaxel]
Survival [2]: 0/4 | In vivo tumor growth compared to the vehicle control (MDA/LCC6^MDR1 tumors): no significant effect | AUC(0-t) [3]: 67 ng·h/mL | half-life ([3]; read-out: Paclitaxel mean terminal phase half-life (t1/2) (converted)): 3.9 h | Cmax ([4]; control of the OCFB series): 99 ng/mL | AUC(0-t) ([4]; control of the OCFB series): 266 ng·h/mL | Cmax ([4]; control of the OCM series): 75 ng/mL | AUC(0-t) ([4]; control of the OCM series): 189 ng·h/mL | Lethality (tumor-bearing mice): 50% | Tumor growth / tumor formation (tumor-bearing mice): significantly inhibited tumor growth, but did not completely prevent tumor formation at any injection site

Saquinavir Concentration in Brain [5]: BLQ (3×) and 1.40 ng/mL | Saquinavir Concentration in CSF [5]: BLQ | concentration at 30 min ([5]; male, Sprague Dawley, rat, brain, oral, 20 mg/kg): 1.4 ng/mL | Rats with slight salivation immediately following the saquinavir dose ([6]; Group 1 (ONT-093 pretreatment)): 3 of 4 | Rats with slight salivation immediately following the saquinavir dose ([6]; Group 2 (vehicle pretreatment)): 2 of 4 | Rats with slight salivation immediately following the saquinavir dose ([6]; Group 3 (ONT-093 pretreatment)): 3 of 4 | Rats with slight salivation immediately following the saquinavir dose ([6]; Group 4 (vehicle pretreatment)): 4 of 4 | concentration at 0.25 hr (in vivo; Concentration of Saquinavir in plasma, 0.25 hr Post-Dose, Mean): 84.6 ng/mL | concentration at 0.5 hr (in vivo; Concentration of Saquinavir in plasma, 0.5 hr Post-Dose, Mean): 72.5 ng/mL | concentration at 1 hr (in vivo; Concentration of Saquinavir in plasma, 1 hr Post-Dose, Mean): 99.5 ng/mL | concentration at 2 hr (in vivo; Concentration of Saquinavir in plasma): 205 ng/mL | concentration at 2 hr (in vivo; Concentration of Saquinavir in plasma, Mean): 157 ng/mL | concentration at 4 hr (in vivo; Concentration of Saquinavir in plasma, 4 hr Post-Dose, Mean): 48.5 ng/mL | concentration at 8 hr (in vivo; Concentration of Saquinavir in plasma, 8 hr Post-Dose, Mean): 4.92 ng/mL | AUC(0-inf) (in vivo; po, 20 mg/kg): 524 ng·h/mL | AUC(0-t) (in vivo; po, 20 mg/kg): 514 ng·h/mL | CL/F (in vivo; po, 20 mg/kg): 654 mL/min/kg | Cmax (in vivo; po, 20 mg/kg): 181 ng/mL | Tmax (in vivo; po, 20 mg/kg): 1.6 h
Compound: CC(C)(C)NC(=O)[C@@H]1C[C@@H]2CCCC[C@@H]2CN1C[C@@H](O)[C@H](Cc1ccccc1)NC(=O)[C@H](CC(N)=O)NC(=O)c1ccc2ccccc2n1 [Saquinavir]

Cmax ([4]; control of the OCFB series): 37 ng/mL | AUC(0-t) ([4]; control of the OCFB series): 32 ng·h/mL | Cmax ([4]; control of the OCM series): 30 ng/mL | AUC(0-t) ([4]; control of the OCM series): 69 ng·h/mL
Compound: CC(=O)O[C@@]12CO[C@@H]1C[C@H](O)[C@@]1(C)C(=O)[C@H](O)C3=C(C)[C@@H](OC(=O)[C@H](O)[C@@H](NC(=O)OC(C)(C)C)c4ccccc4)C[C@@](O)([C@@H](OC(=O)c4ccccc4)[C@H]21)C3(C)C [Docetaxel]
